From EPA's ToxRefDB 2 come the findings set out here.

Series [1] has as its system dog. The settings on record: Sub-acute repeat dose toxicity, beagle, Oral, Gavage/Intubation, dose end: 4 week, group: systemic.
In series [2] the test system is dog. The settings on record: Sub-acute repeat dose toxicity, beagle, Oral, Gavage/Intubation, dose end: 4 week, group: systemic. This is another data set of the same source.
Series [3] deals with rat. Conditions: Sub-acute repeat dose toxicity; sprague dawley; Oral; Gavage/Intubation; dose end: 4 week; group: systemic; systemic / organ weight / liver / absolute + systemic / organ weight / liver / relative to body weight.
In another series the test system is primate. The settings on record: Sub-acute repeat dose toxicity, macaque, Oral, Gavage/Intubation, dose end: 4 week, group: systemic.
In the next series the test system is rabbit. Conditions: Prenatal developmental toxicity study; himalayan; Oral; Gavage/Intubation; dose end: 18 GD; group: maternal; systemic / in life observation / clinical signs / defecation + systemic / in life observation / clinical signs / feces, discoloration + ….
Series [4] relates to rat. Conditions: Combined chronic toxicity/carcinogenicity, fischer, Oral, Feed, dose end: 103 week, group: systemic.
Series [5] relates to mouse. The settings on record: Combined chronic toxicity/carcinogenicity; b6c3f1; Oral; Feed; dose end: 103 week; group: systemic; systemic / in life observation / body weight / body weight.
The test system of series [6] is rat. The settings on record: Prenatal developmental toxicity study, sprague dawley, Injection, Intramuscular, dose end: 13 GD.
Series [7] relates to rat. The settings on record: Prenatal developmental toxicity study; sprague dawley; Injection; Intramuscular; dose end: 14 GD; group: developmental; developmental / developmental malformation / mouth / jaw / cleft palate + developmental / developmental malformation / trunk / umbilical ….
Series [8] deals with rat. The settings on record: Multigenerational reproductive toxicity study, sprague dawley, Oral, Feed, dose end: 2 generation.
Series [9] relates to mouse. Conditions: Carcinogenicity, cd1, Oral, Feed, dose end: 22 month, group: systemic.
Series [10] concerns rat. Conditions: Combined chronic toxicity/carcinogenicity, sprague dawley, Oral, Feed, dose end: 104 week, group: systemic.
Setting [11] is: systemic / clinical chemistry / alanine aminotransferase (alt/sgpt) / alanine aminotransferase (alt/sgpt) + systemic / clinical chemistry / ….
Setting [12] is: systemic / clinical chemistry / alkaline phosphatase (alp/alk) / alkaline phosphatase (alp/alk).
The mark [13] stands for this setting: systemic / clinical chemistry / alkaline phosphatase (alp/alk) / alkaline phosphatase (alp/alk) + systemic / pathology microscopic / liver….
The mark [14] stands for this setting: systemic / pathology microscopic / liver / pigmentation.
Where [15] appears, read: systemic / clinical chemistry / bilirubin / total bilirubin + systemic / organ weight / liver / relative to body weight + systemic / ….
Setting [16] is: systemic / pathology microscopic / liver / granuloma + systemic / pathology microscopic / liver / infiltration cellular + systemic / ….
Where [17] appears, read: systemic / pathology microscopic / pancreas / adenoma/carcinoma combined.
Setting [18] is: group: developmental, developmental / developmental malformation / mouth / jaw / cleft palate + developmental / developmental malformation / trunk / umbilical ….
[19] abbreviates: group: developmental, developmental / developmental malformation / mouth / jaw / cleft palate + systemic / in life observation / body weight / fetal weight.
Where [20] appears, read: group: maternal, reproductive / offspring survival early / dead fetuses / dead fetuses.
Where [21] appears, read: group: offspring, systemic / in life observation / body weight / offspring (pup) weight.
[22] abbreviates: group: parental, systemic / in life observation / body weight / body weight + systemic / in life observation / body weight / body weight gain.
Setting [23] is: systemic / in life observation / body weight / body weight + systemic / in life observation / body weight / body weight gain + systemic / in….
[24] abbreviates: systemic / in life observation / body weight / body weight + systemic / in life observation / body weight / body weight gain.
[25] abbreviates: systemic / in life observation / body weight / body weight + systemic / in life observation / body weight / body weight gain + systemic / ….

As a reminder, the LOAEL is the lowest dose or exposure tested at which an adverse effect was seen. The term NOAEL denotes the highest dose or exposure tested at which no adverse effect was seen. As to `CC[C@H](NC(=O)c1cc(F)ccc1[N-]S(=O)(=O)c1cccc2cccnc12)c1ccccc1.[Na+]` [AVE3295], the LOAEL is more than 300 mg/kg/day with dog [1] (setting [11]); 5 mg/kg/day with dog [2] (setting [13]); more than 2000 mg/kg/day in the series on rat [3]; more than 1000 mg/kg/day with primate (setting [15]); more than 1000 mg/kg/day with rabbit. Also, the no observed adverse effect level (NOAEL) was not below 300 mg/kg/day in the series on dog [1] (setting [11]); 1 mg/kg/day with dog [2] (setting [13]); not below 2000 mg/kg/day with rat [3]; not below 1000 mg/kg/day with primate (setting [15]); not below 1000 mg/kg/day in the series on rabbit. The LEL in the series with dog [1] (setting [12]) was determined as 10 mg/kg/day; with dog [2] (setting [14]), 1 mg/kg/day; in the series on rat [3] it was 2000 mg/kg/day; in the series with primate (setting [16]), 60 mg/kg/day; in the series on rabbit, 1000 mg/kg/day. For the same compound, the NEL was less than 10 mg/kg/day in the series with dog [1] (setting [12]); less than 1 mg/kg/day in the series on dog [2] (setting [14]); 315 mg/kg/day in the series with rat [3]; less than 60 mg/kg/day in the series with primate (setting [16]); 250 mg/kg/day in the series with rabbit.

For the compound `CN(C)[C@@H]1C(=O)C(C(N)=O)=C(O)[C@@]2(O)C(=O)C3=C(O)c4c(O)cccc4[C@@](C)(O)[C@H]3C[C@@H]12.Cl` [Tetracycline hydrochloride], the values for the lowest observed adverse effect level (LOAEL) in the series with rat [4] (systemic / pathology microscopic / liver / clear cell focus + systemic / pathology microscopic / liver / cytoplasmic alteration) and in the series with mouse [5] were 910 mg/kg/day and 1500 mg/kg/day, respectively. The NOAEL with rat [4] (systemic / pathology microscopic / liver / clear cell focus + systemic / pathology microscopic / liver / cytoplasmic alteration + systemic…) was 440 mg/kg/day; in the series with mouse [5] it was less than 1500 mg/kg/day. Also, the LEL in the series with rat [4] (setting [17]) was determined as 440 mg/kg/day; with mouse [5], 1500 mg/kg/day. For the same compound, the NEL was less than 440 mg/kg/day with rat [4] (setting [17]) and less than 1500 mg/kg/day in the series on mouse [5].

`CC1(C)O[C@@H]2C[C@H]3[C@@H]4CCC5=CC(=O)C=C[C@]5(C)[C@@]4(F)[C@@H](O)C[C@]3(C)[C@]2(C(=O)CO)O1` [Triamcinolone acetonide]: in the series on rat [6] (setting [18]), the LOAEL is more than 5 mg/kg/day and the NOAEL was not below 5 mg/kg/day. In addition, in the series on rat [6] (setting [19]), the LEL came to 0.5 mg/kg/day and the NEL is less than 0.5 mg/kg/day. In the series on rat [6] (setting [20]), the LEL turned out to be 2.5 mg/kg/day, the LOAEL is more than 5 mg/kg/day, the NEL turned out to be 0.5 mg/kg/day and the no-observed-adverse-effect level (NOAEL) was not below 5 mg/kg/day. For the same compound, in the series with rat [7], the LEL was found to be 0.5 mg/kg/day, the LOAEL was more than 0.5 mg/kg/day, the NEL is less than 0.5 mg/kg/day and the NOAEL is not below 0.5 mg/kg/day.

As to `COc1nc(NC(C)C)nc(NC(C)C)n1` [Prometon], the LEL came to 35.1 mg/kg/day with rat [8] (setting [21]), 35.1 mg/kg/day with rat [8] (setting [22]), 70 mg/kg/day in the series with mouse [9] (systemic / pathology microscopic / spleen / depletion) and 23.3 mg/kg/day with rat [10] (setting [24]). Moreover, the LOAEL came out at 35.1 mg/kg/day with rat [8] (setting [21]), 35.1 mg/kg/day in the series on rat [8] (setting [22]), 737 mg/kg/day with mouse [9] (setting [23]) and 23.3 mg/kg/day in the series with rat [10] (setting [24]). The NEL in the series on rat [8] (setting [21]) was 1.45 mg/kg/day; in the series with rat [8] (setting [22]), 1.45 mg/kg/day; in the series on mouse [9] (setting [23]) it was 1.7 mg/kg/day; with rat [10] (setting [25]), 0.89 mg/kg/day. The NOAEL is 1.45 mg/kg/day with rat [8] (setting [21]), 1.45 mg/kg/day in the series with rat [8] (setting [22]), 70 mg/kg/day with mouse [9] (setting [23]) and 0.89 mg/kg/day in the series on rat [10] (setting [25]).
